Assay results published in patent US9096591B2, “Tetracyclic compounds” (Medivation Technologies, Inc., priority 2007, dated 2015).
Where two headings read alike, the source gives them in different places.

Columns and labels:
[1] = biological target: T1, human recombinant histamine H2 receptor (Homo sapiens, UniProt P25021); test: Histamine H2 radioligand binding ([125I]Aminopotentidine); settings: for inhibition at 0.1 µM: 0.1 μM compound; for inhibition at 0.3 µM: 0.3 μM compound
T1 construct: expressed in transfected cells; host or cells: CHO-K1 cells
T1 sequence (P25021 whole entry): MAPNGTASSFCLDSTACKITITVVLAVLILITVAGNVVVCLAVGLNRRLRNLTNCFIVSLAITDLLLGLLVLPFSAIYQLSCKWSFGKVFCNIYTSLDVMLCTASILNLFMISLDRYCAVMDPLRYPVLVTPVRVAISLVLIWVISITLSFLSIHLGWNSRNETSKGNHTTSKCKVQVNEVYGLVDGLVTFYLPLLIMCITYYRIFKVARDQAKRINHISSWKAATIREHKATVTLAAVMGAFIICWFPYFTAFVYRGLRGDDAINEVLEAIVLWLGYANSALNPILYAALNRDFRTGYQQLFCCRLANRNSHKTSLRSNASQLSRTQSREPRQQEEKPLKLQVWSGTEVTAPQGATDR
Protocol: Non-specific binding was estimated in the presence of 3 μM Tiotidine. […] Biochemical assay results are presented as the percent inhibition of specific binding in Table 5.
Non-specific binding was estimated in the presence of 3 μM Tiotidine. […] Compounds were screened at 1 μM, using 1% DMSO as vehicle. Biochemical assay results are presented as the percent inhibition of specific binding in Table 6.

[2] = biological target: T2, human recombinant serotonin (5-Hydroxytryptamine) 5-HT2C receptor (Homo sapiens, UniProt P28335); test: Serotonin 5-HT2C radioligand binding ([3H]Mesulergine); parameters: Inhibition of ligand binding, Ser. 5-HT2C: concentration or dose not given beside the values; settings: percent inhibition of specific binding
T2 construct: expressed in transfected cells; host or cells: CHO-K1 cells
T2 sequence (P28335 33-458): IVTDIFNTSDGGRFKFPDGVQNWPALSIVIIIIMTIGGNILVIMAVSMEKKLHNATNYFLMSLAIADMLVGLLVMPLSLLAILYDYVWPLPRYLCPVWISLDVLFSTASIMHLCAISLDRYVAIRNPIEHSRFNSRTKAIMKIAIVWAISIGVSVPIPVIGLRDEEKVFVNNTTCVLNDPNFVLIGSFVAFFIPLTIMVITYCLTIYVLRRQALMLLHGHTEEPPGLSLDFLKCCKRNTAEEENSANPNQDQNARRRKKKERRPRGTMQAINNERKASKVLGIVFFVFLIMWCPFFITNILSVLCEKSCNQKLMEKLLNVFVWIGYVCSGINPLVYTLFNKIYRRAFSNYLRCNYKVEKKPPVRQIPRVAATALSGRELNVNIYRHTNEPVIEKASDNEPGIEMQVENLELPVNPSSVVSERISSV
Protocol: Compounds of the invention were incubated with 1 nM [^3H]Mesulergine for 60 minutes at 25° C. Non-specific binding was estimated in the presence of 1 μM Mianserin. Receptor proteins were filtered and washed, the filters were then counted to determine [^3H]Mesulergine specifically bound. […] Biochemical assay results are presented as the percent inhibition of specific binding in Table 6.

[3] = biological target: T3, human recombinant adrenergic α2A receptor (Homo sapiens, UniProt P08913); test: Adrenergic α2A radioligand binding ([3H]MK-912); parameters: Inhibition of ligand binding, Adren. alpha2A: concentration or dose not given beside the values; settings: percent inhibition of specific binding
T3 construct: expressed in transfected cells; host or cells: insect Sf9 cells
T3 sequence (P08913 1-465): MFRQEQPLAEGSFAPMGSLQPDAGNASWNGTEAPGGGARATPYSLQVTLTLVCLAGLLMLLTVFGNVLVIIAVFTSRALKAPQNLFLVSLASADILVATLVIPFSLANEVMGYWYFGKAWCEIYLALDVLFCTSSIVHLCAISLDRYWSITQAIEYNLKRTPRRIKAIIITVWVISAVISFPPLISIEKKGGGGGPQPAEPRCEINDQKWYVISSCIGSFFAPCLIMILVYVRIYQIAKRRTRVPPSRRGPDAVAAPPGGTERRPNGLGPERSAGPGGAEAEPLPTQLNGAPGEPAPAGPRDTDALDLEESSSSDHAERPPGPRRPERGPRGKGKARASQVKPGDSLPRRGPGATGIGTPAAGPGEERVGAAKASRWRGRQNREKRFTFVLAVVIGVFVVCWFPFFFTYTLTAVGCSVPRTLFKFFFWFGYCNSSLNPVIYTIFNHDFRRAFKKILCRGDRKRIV
Protocol: To evaluate in radioligand binding assays the activity of compounds of the invention, human recombinant adrenergic α2A receptor expressed in insect Sf9 cells (Uhlen S et al. J Pharmacol Exp Ther. 271:1558, 1994) in a modified Tris-HCl buffer (50 mM Tris-HCl, pH 7.4, 12.5 mM MgCl2, 2 mM EDTA) was used. Compounds of invention were incubated with 1 nM [^3H]MK-912 for 60 minutes at 25° C. MK912 is (2S-trans)-1,3,4,5′,6,6′,7,12b-octahydro-1′,3′-dimethyl-spiro[2H-benzofuro[2,3-a]quinolizine-2,4′(1′H)-pyrimidin]-2′(3′H)-one hydrochloride Non-specific binding was estimated in the presence of 10 μM WB-4101 (2-(2,6-Dimethoxyphenoxyethyl)aminomethyl-1,4-benzodioxane hydrochloride). Receptor proteins were filtered and washed, the filters were then counted to determine [^3H]MK-912 specifically bound. […] Biochemical assay results are presented as the percent inhibition of specific binding in Table 6.

[4] = 0.1 nM [125I]Aminopotentidine, read-out: Histamine Binding H2, percent inhibition of specific binding
[5] = 1 μM compound, 0.1 nM [125I]Aminopotentidine, read-out: Histamine Binding H2, percent inhibition of specific binding
[6] = percent inhibition of specific binding, screened at 1 μM, read-out: Inhibition of ligand binding, Hist. H2

Row | inhibition at 1 µM [1, 5] [%] | inhibition at 1 µM [1, 6] [%] | Inhibition of ligand binding, Ser. 5-HT2C [2] [%] | Inhibition of ligand binding, Adren. alpha2A [3] [%] | SMILES | inhibition at 0.1 µM [1, 4] [%] | inhibition at 0.3 µM [1, 4] [%]
1 | 72 | 87 | 98 | 98 | Cc1ccc2c(c1)c1c(n2CCc2ccccc2)CCN(C)C1 [Compound 20, 2,3,4,5-tetrahydro-2,8-dimethyl-5-phenethyl-1H-pyrido[4,3-b]indole] | 33 | 51
2 | 17 | 17 | 54 | 0 | CN1CCc2c(c3cc(Cl)ccc3n2CC(=O)N2CCCCC2)C1 [Compound 236, 2-(8-chloro-1,2,3,4-tetrahydro-2-methylpyrido[4,3-b]indol-5-yl)-1-(piperidin-1-yl)ethanone] | – | –
3 | 24 | 24 | 36 | 26 | CC1CCN(C(=O)Cn2c3c(c4cc(Cl)ccc42)CN(C)CC3)CC1 [Compound 237, 2-(8-chloro-1,2,3,4-tetrahydro-2-methylpyrido[4,3-b]indol-5-yl)-1-(4-methylpiperidin-1-yl)ethanone] | – | –
4 | 6 | 6 | 20 | −13 | CN1CCc2c(c3cc(Cl)ccc3n2CC(=O)N2CCOCC2)C1 [Compound 238, 2-(8-chloro-1,2,3,4-tetrahydro-2-methylpyrido[4,3-b]indol-5-yl)-1-morpholinoethanone] | – | –
5 | 10 | 10 | 65 | 0 | CN1CCc2c(c3cc(Cl)ccc3n2CC(=O)N2CCSCC2)C1 [Compound 239, 2-(8-chloro-1,2,3,4-tetrahydro-2-methylpyrido[4,3-b]indol-5-yl)-1-thiomorpholinoethanone] | – | –
6 | 23 | 23 | 27 | 36 | CN1CCc2c(c3cc(Cl)ccc3n2CCC(=O)N2CCCC2)C1 [Compound 240, 3-(8-chloro-1,2,3,4-tetrahydro-2-methylpyrido[4,3-b]indol-5-yl)-1-(pyrrolidin-1-yl)propan-1-one] | – | –
7 | 17 | 17 | 33 | 3 | CN1CCc2c(c3cc(Cl)ccc3n2CC(=O)N2CCCC2)C1 [Compound 243, 2-(8-chloro-1,2,3,4-tetrahydro-2-methylpyrido[4,3-b]indol-5-yl)-1-(pyrrolidin-1-yl)ethanone] | – | –
8 | 10 | 10 | 22 | 22 | CN1CCc2c(c3cc(Cl)ccc3n2CC(=O)N2CCNCC2)C1 [Compound 244] | – | –
9 | 8 | 8 | 20 | 8 | CC1CN(C(=O)Cn2c3c(c4cc(Cl)ccc42)CN(C)CC3)CC(C)N1 (stereo not drawn) [Compound 245] | – | –
10 | 16 | 16 | 59 | 21 | CN1CCc2c(c3cc(Cl)ccc3n2CC(=O)N2CCNC(=O)C2)C1 [Compound 246] | – | –
11 | – | 3 | 11 | −2 | CC(=O)N1CCN(C(=O)Cn2c3c(c4cc(Cl)ccc42)CN(C)CC3)CC1 [Compound 297, 1-(4-Acetyl-piperazin-1-yl)-2-(8-chloro-2-methyl-1,2,3,4-tetrahydro-pyrido[4,3-b]indol-5-yl)-ethanone] | – | –
12 | – | 25 | 61 | 12 | CC1CCCCN1C(=O)Cn1c2c(c3cc(Cl)ccc31)CN(C)CC2 (stereo not drawn) [Compound 321, 2-(8-chloro-1,2,3,4-tetrahydro-2-methylpyrido[4,3-b]indol-5-yl)-1-(2-methylpiperidin-1-yl)ethanone] | – | –

Row | SMILES | inhibition at 1 µM [1, 5] [%] | inhibition at 1 µM [1, 6] [%] | Inhibition of ligand binding, Ser. 5-HT2C [2] [%] | Inhibition of ligand binding, Adren. alpha2A [3] [%] | inhibition at 0.1 µM [1, 4] [%] | inhibition at 0.3 µM [1, 4] [%]
13 | Cc1ccc2c(c1)c1c(n2CCc2ccccn2)CCN(C)C1 [Compound 21, 2,3,4,5-tetrahydro-2,8-dimethyl-5-(2-(pyridin-2-yl)ethyl)-1H-pyrido[4,3-b]indole] | 45 | 45 | 87 | – | – | –
14 | Cc1ccc(CCn2c3c(c4cc(C)ccc42)CN(C)CC3)cc1 [Compound 25, 2,3,4,5-tetrahydro-2,8-dimethyl-5-(4-methylphenethyl)-1H-pyrido[4,3-b]indole] | 96 | 96 | 99 | 99 | 54 | 75
15 | CCN1CCc2c(c3cc(C)ccc3n2CCc2ccncc2)C1 [Compound 27, 2-ethyl-2,3,4,5-tetrahydro-8-methyl-5-(2-(pyridin-4-yl)ethyl)-1H-pyrido[4,3-b]indole] | 32 | 32 | 29 | 53 | – | –
16 | Cc1ccc2c(c1)c1c(n2CCc2ccc(C)nc2)CCNC1 [Compound 230, 2,3,4,5-tetrahydro-8-methyl-5-(2-(6-methylpyridin-3-yl)ethyl)-1H-pyrido[4,3-b]indole] | 6 | 30 | 36 | 56 | – | –
17 | COc1ccc(CCn2c3c(c4cc(C)ccc42)CN(C)CC3)cc1 [Compound 247] | 97 | 97 | 93 | 99 | – | –
18 | Cc1ccc2c(c1)c1c(n2CCc2ccc(CO)nc2)CCN(C)C1 [Compound 267] | – | 42 | 76 | 49 | – | –
19 | CCOC(=O)c1ccc(CCn2c3c(c4cc(C)ccc42)CN(C)CC3)cn1 [Compound 275, ethyl 5-(2-(1,2,3,4-tetrahydro-2,8-dimethylpyrido[4,3-b]indol-5-yl)ethyl)pyridine-2-carboxylate] | – | 20 | 31 | 29 | – | –
20 | CN1CCc2c(c3cc(Cl)ccc3n2CC(=O)N2CCS(=O)(=O)CC2)C1 [Compound 295] | – | 10 | −19 | 26 | – | –
21 | CN1CCc2c(c3cc(Cl)ccc3n2CC(=O)N2CC[S+]([O-])CC2)C1 [Compound 296, 2-(8-Chloro-2-methyl-1,2,3,4-tetrahydro-pyrido[4,3-b]indol-5-yl)-1-(1-oxo-1l4-thiomorpholin-4-yl)-ethanone] | – | -4 | 2 | 1 | – | –
